Assay results taken from a compilation of properties of binary mixtures (doi:10.1016/j.fluid.2019.112324).

Assay: xn = mol fraction of the nth substance listed
Settings: 100 kPa

CCCCCC[n+]1ccn(C)c1.O=[N+]([O-])[O-] + CCCC(C)O
viscosity [mPa·s]
Settings	293.15 K	298.15 K	303.15 K	308.15 K	313.15 K	318.15 K	323.15 K
x1 = 0.0814	8.28	6.18	–	3.48	–	2.12	–
x1 = 0.1609	14.69	–	7.26	5.08	3.72	2.81	2.11
x1 = 0.2408	–	16.18	11.09	7.43	5.31	3.76	2.74
x1 = 0.3491	42.8	29	19.05	12.22	8.55	5.85	4.09
x1 = 0.4393	69	44.8	29.4	18.45	12.22	8.65	6.05
x1 = 0.5608	122.5	79.4	50.9	32	21.2	14.52	10.28
x1 = 0.6509	177	117.2	76.9	49.3	33	22.4	–
x1 = 0.7401	–	173.4	–	–	50.1	34.9	25.8
x1 = 0.8508	–	285	189	125.3	85.7	61.8	47.3
x1 = 0.9393	614	416	282	195	136.2	99.7	76.9
x1 = 1	804	545	369	258	186	140.2	–

CCCC(C)O (configuration not stated) + CCCCCC[n+]1ccn(C)c1.O=[N+]([O-])[O-]
x2 = 0
Settings	viscosity [mPa·s]
293.15 K	3.97
298.15 K	3.32
303.15 K	2.81
308.15 K	2.37
313.15 K	1.99
318.15 K	1.66
